Assay results taken from US11446287B2, “Compounds and methods for EP300 or CBP modulation and indications therefor” (Opna Immuno-Oncology SA, priority 2019, dated 2022).

Target: T1, Recombinant human EP300 containing the bromodomain (EP300-BD (1040-1161)) (Homo sapiens, UniProt Q09472)
T1 construct: Recombinant human EP300 bromodomain (EP300-BD (1040-1161)); made in house; host or cells: E. coli BL21-CodonPlus (DE3), modified pET vector
T1 sequence (Q09472 1040-1161): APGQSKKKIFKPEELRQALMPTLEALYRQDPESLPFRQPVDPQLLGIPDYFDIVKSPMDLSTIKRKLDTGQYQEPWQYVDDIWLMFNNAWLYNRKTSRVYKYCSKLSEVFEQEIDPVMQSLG
Assay: EP300 Alphascreen binding assay
Outline: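 Displacement of a biotinylated acetyl-K56 histone H3 peptide from the N-His bromodomain construct (1040-1161) measured by AlphaScreen proximity, beads at 7.5 μg/ml final, read 60 min after addition. Protein, peptide and compound first incubated 1 h at room temperature, pH 7.5 HEPES buffer; IC50 by four-parameter logistic fit.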

Structure (SMILES)	IC50
CCOc1cc(C(=O)O)cc(OCC)c1-n1cc(-c2cnn(C3CC3)c2)c2ncc(-c3c(C)noc3C)cc21 [P-0265, 4-(3-(1-cyclopropyl-1H-pyrazol-4-yl)-6-(3,5-dimethylisoxazol-4-yl)-1H-pyrrolo[3,2-b]pyridin-1-yl)-3,5-diethoxybenzoic acid]	0.0001 to 1 µM
CCOc1cc(C(=O)O)cc(OCC)c1-n1cc(-c2cnn(CCC#N)c2)c2ncc(-c3c(C)noc3C)cc21 [P-0266, 4-(3-(1-(2-cyanoethyl)-1H-pyrazol-4-yl)-6-(3,5-dimethylisoxazol-4-yl)-1H-pyrrolo[3,2-b]pyridin-1-yl)-3,5-diethoxybenzoic acid]	0.0001 to 1 µM
CCOc1cc(C(=O)O)cc(OCC)c1-n1cc(-c2cnn(CC(=O)N(C)C)c2)c2ncc(-c3c(C)noc3C)cc21 [P-0267, 4-(3-(1-(2-(dimethylamino)-2-oxoethyl)-1H-pyrazol-4-yl)-6-(3,5-dimethylisoxazol-4-yl)-1H-pyrrolo[3,2-b]pyridin-1-yl)-3,5-diethoxybenzoic acid]	0.0001 to 1 µM
Cc1noc(C)c1-c1cnc2c(c1)c(-c1cc(C(=O)O)ccc1OC(F)(F)F)cn2-c1ccc(F)cc1F [P-0268, 3-(1-(2,4-difluorophenyl)-5-(3,5-dimethylisoxazol-4-yl)-1H-pyrrolo[2,3-b]pyridin-3-yl)-4-(trifluoromethoxy)benzoic acid]	0.0001 to 1 µM
Cc1noc(C)c1-c1cnc2c(-c3ccc(F)cc3F)cn(-c3c(OC(C)C)cc(C(=O)O)cc3OC(C)C)c2c1 [P-0269, 4-(3-(2,4-difluorophenyl)-6-(3,5-dimethylisoxazol-4-yl)-1H-pyrrolo[3,2-b]pyridin-1-yl)-3,5-diisopropoxybenzoic acid]	0.0001 to 1 µM
CCOc1cc(C(=O)O)cc(OCC)c1-n1cc(CC2CCC2)c2ncc(-n3c(C)nnc3C)cc21 [P-0270, 4-(3-(cyclobutylmethyl)-6-(3,5-dimethyl-4H-1,2,4-triazol-4-yl)-1H-pyrrolo[3,2-b]pyridin-1-yl)-3,5-diethoxybenzoic acid]	1 to 8 µM
CCOc1cc(C(=O)O)cc(OCC)c1-n1cc(C2CCC(F)(F)CC2)c2ncc(-c3c(C)noc3C)cc21 [P-0271, 4-(3-(4,4-difluorocyclohexyl)-6-(3,5-dimethylisoxazol-4-yl)-1H-pyrrolo[3,2-b]pyridin-1-yl)-3,5-diethoxybenzoic acid]	0.0001 to 1 µM
Cc1noc(C)c1-c1cnc2c(c1)c(-c1cnn(CC(=O)O)c1)cn2-c1ncccc1C#CC1CC1 [P-0272, 2-(4-(1-(3-(cyclopropylethynyl)pyridin-2-yl)-5-(3,5-dimethylisoxazol-4-yl)-1H-pyrrolo[2,3-b]pyridin-3-yl)-1H-pyrazol-1-yl)acetic acid]	0.0001 to 1 µM
Cc1noc(C)c1-c1cnc2c(c1)c(-c1ccc(C(=O)O)cc1OC(F)F)cn2-c1ccccc1 [P-0273, 3-(difluoromethoxy)-4-(5-(3,5-dimethylisoxazol-4-yl)-1-phenyl-1H-pyrrolo[2,3-b]pyridin-3-yl)benzoic acid]	0.0001 to 1 µM
Cc1noc(C)c1-c1cnc2c(-c3ccccc3)cn(-c3cc(C(=O)O)ccc3OC(F)(F)F)c2c1 [P-0274, 3-(6-(3,5-dimethylisoxazol-4-yl)-3-phenyl-1H-pyrrolo[3,2-b]pyridin-1-yl)-4-(trifluoromethoxy)benzoic acid]	0.0001 to 1 µM
Cc1noc(C)c1-c1cnc2c(c1)c(-c1ccc(C(=O)O)cc1OC(C)C)cn2-c1ccccc1 [P-0275, 4-(5-(3,5-dimethylisoxazol-4-yl)-1-phenyl-1H-pyrrolo[2,3-b]pyridin-3-yl)-3-isopropoxybenzoic acid]	0.0001 to 1 µM
Cc1noc(C)c1-c1cnc2c(c1)c(-c1ccc(C(=O)O)cc1OC1CCC1)cn2-c1ccccc1 [P-0276, 3-cyclobutoxy-4-(5-(3,5-dimethylisoxazol-4-yl)-1-phenyl-1H-pyrrolo[2,3-b]pyridin-3-yl)benzoic acid]	0.0001 to 1 µM
Cc1noc(C)c1-c1cnc2c(c1)c(-c1ccc(C(=O)O)cc1OCC(F)F)cn2-c1ccccc1 [P-0277, 3-(2,2-difluoroethoxy)-4-(5-(3,5-dimethylisoxazol-4-yl)-1-phenyl-1H-pyrrolo[2,3-b]pyridin-3-yl)benzoic acid]	0.0001 to 1 µM
Cc1noc(C)c1-c1cnc2c(c1)c(-c1ccc(C(=O)O)cc1OCC(F)(F)F)cn2-c1ccccc1 [P-0278, 4-(5-(3,5-dimethylisoxazol-4-yl)-1-phenyl-1H-pyrrolo[2,3-b]pyridin-3-yl)-3-(2,2,2-trifluoroethoxy)benzoic acid]	0.0001 to 1 µM
Cc1noc(C)c1-c1cnc2c(c1)c(-c1ccc(C(=O)O)cc1OC(F)(F)F)cn2-c1ccc(F)cc1 [P-0279, 4-(5-(3,5-dimethylisoxazol-4-yl)-1-(4-fluorophenyl)-1H-pyrrolo[2,3-b]pyridin-3-yl)-3-(trifluoromethoxy)benzoic acid]	0.0001 to 1 µM
Cc1noc(C)c1-c1cnc2c(c1)c(-c1cnn(CC(=O)O)c1)cn2C(C1CC1)C1CC1 [P-0280, 2-(4-(1-(dicyclopropylmethyl)-5-(3,5-dimethylisoxazol-4-yl)-1H-pyrrolo[2,3-b]pyridin-3-yl)-1H-pyrazol-1-yl)acetic acid]	0.0001 to 1 µM
Cc1noc(C)c1-c1cnc2c(c1)c(-c1ccc(C(=O)O)cc1OC(F)(F)F)cn2-c1cnc(N2CCC2)nc1 [P-0281, 4-(1-(2-(azetidin-1-yl)pyrimidin-5-yl)-5-(3,5-dimethylisoxazol-4-yl)-1H-pyrrolo[2,3-b]pyridin-3-yl)-3-(trifluoromethoxy)benzoic acid]	0.0001 to 1 µM
Cc1noc(C)c1-c1cnc2c(c1)c(-c1ccc(C(=O)O)cc1OC(F)(F)F)cn2-c1ccc(S(C)(=O)=O)cc1 [P-0282, 4-(5-(3,5-dimethylisoxazol-4-yl)-1-(4-(methylsulfonyl)phenyl)-1H-pyrrolo[2,3-b]pyridin-3-yl)-3-(trifluoromethoxy)benzoic acid]	0.0001 to 1 µM
Cc1noc(C)c1-c1cnc2c(c1)c(-c1c(Cl)cc(C(=O)O)cc1OC(C)C)cn2C(C1CC1)C1CC1 [P-0283, 3-chloro-4-(1-(dicyclopropylmethyl)-5-(3,5-dimethylisoxazol-4-yl)-1H-pyrrolo[2,3-b]pyridin-3-yl)-5-isopropoxybenzoic acid]	0.0001 to 1 µM
Cc1noc(C)c1-c1cnc2c(c1)c(-c1cc(C(=O)O)ccc1OC(F)(F)F)cn2C(C1CC1)C1CC1 [P-0284, 3-(1-(dicyclopropylmethyl)-5-(3,5-dimethylisoxazol-4-yl)-1H-pyrrolo[2,3-b]pyridin-3-yl)-4-(trifluoromethoxy)benzoic acid]	0.0001 to 1 µM
Cc1noc(C)c1-c1cnc2c(c1)c(-c1ccc(C(=O)O)cc1OC(F)(F)F)cn2[C@H]1CCOC1 [P-0285, (S)-4-(5-(3,5-dimethylisoxazol-4-yl)-1-(tetrahydrofuran-3-yl)-1H-pyrrolo[2,3-b]pyridin-3-yl)-3-(trifluoromethoxy)benzoic acid]	0.0001 to 1 µM
Cc1noc(C)c1-c1cnc2c(c1)c(-c1ccc(C(=O)O)cc1OC(F)(F)F)cn2[C@@H]1CCOC1 [P-0286, (R)-4-(5-(3,5-dimethylisoxazol-4-yl)-1-(tetrahydrofuran-3-yl)-1H-pyrrolo[2,3-b]pyridin-3-yl)-3-(trifluoromethoxy)benzoic acid]	0.0001 to 1 µM
CCn1cc(-n2cc(-c3ccc(C(=O)O)cc3OC(F)(F)F)c3cc(-c4c(C)noc4C)cnc32)c(C)n1 [P-0287, 4-(5-(3,5-dimethylisoxazol-4-yl)-1-(1-ethyl-3-methyl-1H-pyrazol-4-yl)-1H-pyrrolo[2,3-b]pyridin-3-yl)-3-(trifluoromethoxy)benzoic acid]	0.0001 to 1 µM
Cc1nn(C(F)F)cc1-n1cc(-c2ccc(C(=O)O)cc2OC(F)(F)F)c2cc(-c3c(C)noc3C)cnc21 [P-0288, 4-(1-(1-(difluoromethyl)-3-methyl-1H-pyrazol-4-yl)-5-(3,5-dimethylisoxazol-4-yl)-1H-pyrrolo[2,3-b]pyridin-3-yl)-3-(trifluoromethoxy)benzoic acid]	0.0001 to 1 µM
Cc1noc(C)c1-c1cnc2c(c1)c(-c1ccc(C(=O)O)cc1OC(F)(F)F)cn2-c1cnn(C(F)F)c1C [P-0289, 4-(1-(1-(difluoromethyl)-5-methyl-1H-pyrazol-4-yl)-5-(3,5-dimethylisoxazol-4-yl)-1H-pyrrolo[2,3-b]pyridin-3-yl)-3-(trifluoromethoxy)benzoic acid]	0.0001 to 1 µM
Cc1noc(C)c1-c1cnc2c(c1)c(-c1ccc(C(=O)O)cc1OC(F)(F)F)cn2C1CCNCC1 [P-0290, 4-(5-(3,5-dimethylisoxazol-4-yl)-1-(piperidin-4-yl)-1H-pyrrolo[2,3-b]pyridin-3-yl)-3-(trifluoromethoxy)benzoic acid]	0.0001 to 1 µM
CC(=O)N1CCC(n2cc(-c3ccc(C(=O)O)cc3OC(F)(F)F)c3cc(-c4c(C)noc4C)cnc32)CC1 [P-0291, 4-(1-(1-acetylpiperidin-4-yl)-5-(3,5-dimethylisoxazol-4-yl)-1H-pyrrolo[2,3-b]pyridin-3-yl)-3-(trifluoromethoxy)benzoic acid]	0.0001 to 1 µM
Cc1noc(C)c1-c1cnc2c(c1)c(-c1ccc(C(=O)O)cc1OC(F)(F)F)cn2C1CCN(S(C)(=O)=O)CC1 [P-0292, 4-(5-(3,5-dimethylisoxazol-4-yl)-1-(1-(methylsulfonyl)piperidin-4-yl)-1H-pyrrolo[2,3-b]pyridin-3-yl)-3-(trifluoromethoxy)benzoic acid]	0.0001 to 1 µM
Cc1noc(C)c1-c1cnc2c(c1)c(-c1ccc(C(=O)O)cc1OC(F)(F)F)cn2-c1ccncc1F [P-0293, 4-(5-(3,5-dimethylisoxazol-4-yl)-1-(3-fluoropyridin-4-yl)-1H-pyrrolo[2,3-b]pyridin-3-yl)-3-(trifluoromethoxy)benzoic acid]	0.0001 to 1 µM
